Consider 2 molecules from US20250009750A1, “METHODS OF TREATING DISORDERS ASSOCIATED WITH EYA OVEREXPRESSION AND MUTATIONS” (The Board of Regents of the University of Texas System, priority 2023, published 2025).

Test [1] concerns the target T1, EYA4 serine/threonine phosphatase domain (Homo sapiens, UniProt O95677).
T1 construct: the N-terminus domain of EYA4 (residues 1-365), was sub-cloned as a Strep-mCherry-EYA4-His construct; Strep (N); His (C); made in house; host or cells: Sf9 insect cells (baculovirus, pFastBac1)
T1 sequence (O95677 1-365): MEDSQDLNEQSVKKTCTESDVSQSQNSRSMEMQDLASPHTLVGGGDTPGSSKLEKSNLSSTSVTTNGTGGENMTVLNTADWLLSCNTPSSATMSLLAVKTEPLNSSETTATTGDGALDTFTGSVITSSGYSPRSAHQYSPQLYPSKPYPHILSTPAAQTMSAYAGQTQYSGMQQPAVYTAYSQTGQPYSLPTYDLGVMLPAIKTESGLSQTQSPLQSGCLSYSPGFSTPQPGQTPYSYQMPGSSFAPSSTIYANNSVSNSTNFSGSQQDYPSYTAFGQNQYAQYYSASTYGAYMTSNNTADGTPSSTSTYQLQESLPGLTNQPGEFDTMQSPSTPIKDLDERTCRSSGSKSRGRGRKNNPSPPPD
Briefly: Malachite green phosphatase assay, first 365 residues of EYA4 (serine/threonine phosphatase domain), 53BP1-derived peptide. In kind it is biochemical. As to the method:
(§1) To measure phosphatase activity, increasing concentrations of EYA4 (0-200 nM, alone or pre-incubated with ssDNA) were incubated in the presence of 400 nM potential substrates (peptides sourced from Genscript, see list and sequence in figures) in 50 μL of reaction buffer A ([…] pH 6, 2 mM MgCl2, 50 μM DTT) for 1 h at 37° C. At the end of the first incubation, the reaction mix containing malachite green was added to phosphatase or ATPase reactions, and the mixture was further incubated for 30 minutes at 37° C. Plates were read at 620 nm in a plate reader. The quantity of […] was inferred from the standard curve prepared as per manufacturer recommendation (Sigma).
In a malachite green assay, the tyrosine but not serine/threonine phosphatase activity was inhibited by CIDD molecule—149689. For this assay, full length EYA4 purified near homogeneity as previously described was incubated with increasing amounts of inhibitor, then mixed with either peptide KATQASQE{pTyr} from H2AX or with peptide from RAD51.

Test [2] has as its target T2, EYA4 tyrosine phosphatase (Homo sapiens, UniProt O95677).
T2 construct: GFP (pEGFP-C1) (N, cleaved yes); made in house; host or cells: Expi293 mammalian suspension cells
T2 sequence (O95677 1-639): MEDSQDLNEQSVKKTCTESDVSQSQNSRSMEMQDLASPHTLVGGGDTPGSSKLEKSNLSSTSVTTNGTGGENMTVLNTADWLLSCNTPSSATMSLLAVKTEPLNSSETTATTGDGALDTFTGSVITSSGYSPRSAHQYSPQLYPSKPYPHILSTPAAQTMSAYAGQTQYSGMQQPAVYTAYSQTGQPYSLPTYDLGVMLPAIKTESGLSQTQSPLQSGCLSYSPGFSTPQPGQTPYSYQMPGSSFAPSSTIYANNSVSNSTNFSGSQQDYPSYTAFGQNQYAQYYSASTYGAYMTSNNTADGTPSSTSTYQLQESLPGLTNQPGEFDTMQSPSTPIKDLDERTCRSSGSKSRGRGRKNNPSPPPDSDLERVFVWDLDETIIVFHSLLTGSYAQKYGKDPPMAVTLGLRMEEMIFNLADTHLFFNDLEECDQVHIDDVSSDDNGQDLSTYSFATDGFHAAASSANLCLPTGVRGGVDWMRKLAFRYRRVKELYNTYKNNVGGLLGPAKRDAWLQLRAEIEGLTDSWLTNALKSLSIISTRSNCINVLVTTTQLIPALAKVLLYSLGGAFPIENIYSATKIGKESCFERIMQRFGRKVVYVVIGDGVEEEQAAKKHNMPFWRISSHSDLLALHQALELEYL
In words: Malachite green phosphatase assay, full length EYA4, tyrosine phosphatase activity. In kind it is biochemical. To be noted: increasing amounts of inhibitor. As to the method: as §1
EYAT-3 proteins have been described to dephosphorylate residue Y142 on the histone variant H2AX and the same activity was recently confirmed in EYA4. Using the synthetic peptide KATQASQE{pTyr} as substrate and a commercial colorimetric malachite green assay (Sigma) that allows to quantify […] released in the buffer by a phosphatase, EYA4's tyrosine phosphatase activity was assayed in the presence of putative inhibitors.
In a malachite green assay, the tyrosine but not serine/threonine phosphatase activity was inhibited by CIDD molecule—149689. […]

The subject of test [3] is HRD+ pancreatic cell lines. Briefly: Survival of treated pancreatic cell lines panel. Type of test: cell-based. As to conditions: at the concentrations tested, FIG. 34C. The text has this:
Using molecules that target regulators of DNA metabolism mechanisms (repair, recombination, replication), such as kinase and phosphatase can offer a therapeutic window for drug resistant, HRD>0 patients. EYA4 inhibitors have been tested on the pancreatic cell lines panel. […] EYA4i have therapeutic potential for the treatment of pancreatic cancer, including PARPi refractory disease.

For `Clc1ccc(CNc2nc(NC3CCCC3)nc3ccccc23)cc1Cl` [CIDD molecule—149689, N2-cyclopentyl-N4-(3,4-dichlorobenzyl) quinazoline-2,4-diamine], the serine/threonine phosphatase activity result in test [1] was “not inhibited”. Besides, the “EYA4 tyrosine phosphatase activity” value in test [2] (peptide KATQASQE{pTyr} from H2AX) and in test [2] (peptide from RAD51) was “significantly reduced” in each case.
Regarding `O=C(NN=Cc1ccc(Sc2ncccn2)o1)c1cccc(Cl)c1` [CSCS14817788384, 3-chloro-N′-{[5-(pyrimidin-2-ylsulfanyl)furan-2-yl]methylidene}benzohydrazide], the “growth of pancreatic cells” value in test [3] is “does not efficiently inhibit growth”.
